According to patent US4572907A, “High caloric product for I.V. administration” (Abbott Laboratories, priority 1984, dated 1986):

Legend:
[1] = Stability of the compound, solid or in water (NMR and TLC analysis); assay type: physicochemical
[2] = Toxicity (LD50) when tested in mice; details: mouse, in vivo
Text: Another advantage of the compounds of this invention are their low toxicity.

Row | Compound | degradation at 0° after one month ([1]; 0°, one month, NMR and TLC analysis) | stability at 0° ([1]; 0°, substantially long periods of time) | hydrolysis in water after one month ([1]; 15 mg/mL in water, room temperature, one month) | stability in water ([1]; 15 mg/mL in water, room temperature, one week, TLC analysis) | acyl-migration products ([1]; aqueous solution, 60°) | relative hydrolysis of β- and α-anomers ([1]; aqueous solution, 60°) | α-anomers remaining after 36 hours ([1]; aqueous solution, 60°, 36 hours, α-anomers) | β-anomers remaining after 36 hours ([1]; aqueous solution, 60°, 36 hours, β-anomers) | hydrolysis of aqueous solution at 60° ([1]; aqueous solution, 60°, formation of D-glucose, NMR and TLC analysis) | time after which slow degradation of the solid was noted ([1]; solid compound, 60°, D-glucose and unidentified decomposition products (TLC)) [h] | LD50 [2] [mg/kg]
1 | CCCCC(C(=O)OC1O[C@H](CO)[C@@H](O)[C@H](O)[C@H]1O)C(=O)OC1O[C@H](CO)[C@@H](O)[C@H](O)[C@H]1O (stereo partly drawn) [Example 2, Di-(1,1'-D-glucopyranosyl)n-butylmalonates] | no noticeable degradation | stable at 0° for substantially long periods of time | Partial hydrolysis into D-glucose | stable in water | No acyl-migration products were detected | hydrolysis of the β-anomers appeared faster than that of the α-anomers | some α-anomers were still present | completely disappeared | some hydrolysis after about two hours | 3 | 
2 | CCC(C(=O)OC1O[C@H](CO)[C@@H](O)[C@H](O)[C@H]1O)C(=O)OC1O[C@H](CO)[C@@H](O)[C@H](O)[C@H]1O (stereo partly drawn) [Example 4, Di-(1,1'-D-glucopyranosyl)ethylmalonates] |  |  |  |  |  |  |  |  |  |  | 9700
